# Target: T1, human GAL3 receptor (Homo sapiens, UniProt O60755)
# T1 construct: expressed in transfected cells
# T1 sequence (O60755 1-368): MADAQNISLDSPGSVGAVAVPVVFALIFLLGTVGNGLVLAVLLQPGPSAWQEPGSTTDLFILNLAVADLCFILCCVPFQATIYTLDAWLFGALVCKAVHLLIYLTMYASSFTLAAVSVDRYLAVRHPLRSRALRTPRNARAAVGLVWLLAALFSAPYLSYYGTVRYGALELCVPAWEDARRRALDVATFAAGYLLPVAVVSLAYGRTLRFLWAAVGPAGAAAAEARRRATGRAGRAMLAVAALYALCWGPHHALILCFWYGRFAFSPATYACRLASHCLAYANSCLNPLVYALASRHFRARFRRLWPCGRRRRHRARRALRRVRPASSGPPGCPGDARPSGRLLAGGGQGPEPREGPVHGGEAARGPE
# Experiment: Radioligand binding at cloned human GAL3 receptor
# Settings: Ki at GAL1 divided by Ki at human GAL3
# Outline: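 Compound vehicle, as final assay concentration, was 3% DMSO (indolones) or 1% ethanol/0.09% polypuronic acid F-127 (pyrimidines). Binding measured on fresh or frozen membranes of stably transfected LM(tk-) mouse fibroblasts carrying cloned human GAL3, in pH 7.4 HEPES buffer; values derived by nonlinear regression.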
row,Compound,GAL1/GAL3 Ki ratio
1,Cc1ccc(Nc2cc(N3CCCCC3)nc(N3CCN(c4ncccc4C(F)(F)F)CC3)n2)cc1 [Example 34],39

# Same assay, conditions: Table 7; read-out: hGAL3 Ki
row,Compound,Ki [µM]
1,CN(C)c1cc(Nc2ccc(Cl)c(Cl)c2)nc(Nc2ccccc2)n1 [Example 60],0.086
2,COc1cccc(Nc2cc(N3CCCCC3)nc(N(C)CCc3c[nH]c4ccccc34)n2)c1 [Example 17],0.087
3,"O=C1C(=Nc2ccc(C(F)(F)F)cc2)c2ccccc2N1c1ccccc1 [Example 95, 1-PHENYL-3-[[4-(TRIFLUOROMETHYL)PHENYL]IMINO]-1,3-DIHYDRO-2H-INDOL-2-ONE]",0.029
4,"O=C1C(=Nc2ccc(Br)cc2)c2ccccc2N1c1ccccc1 [Example 98, 3-[(4-BROMOPHENYL)IMINO]-1-PHENYL-1,3-DIHYDRO-2H-INDOL-2-ONE]",0.038
5,Cc1ccc(Nc2cc(N3CCCCC3)nc(N3CCN(c4ncccc4C(F)(F)F)CC3)n2)cc1 [Example 34],0.023
6,"O=C1C(=Nc2ccc(Cl)cc2)c2ccccc2N1c1ccccc1 [Example 97, 3-[(4-CHLOROPHENYL)IMINO]-1-PHENYL-1,3-DIHYDRO-2H-INDOL-2-ONE]",0.051
7,Cc1ccc(Nc2cc(N3CCCCC3)nc(N(C)CCc3ccccc3)n2)cc1 [Example 22],0.028
8,Cc1ccc(Nc2cc(N3CCCCC3)nc(N(C)CCc3c[nH]c4ccccc34)n2)cc1 [Example 11],0.091
9,CN(CCc1c[nH]c2ccccc12)c1nc(Nc2ccc(F)c(F)c2)cc(N2CCCCC2)n1 [Example 15],0.073
10,Cc1ccc(Nc2cc(N(C)C)nc(N(C)CCc3c[nH]c4ccccc34)n2)cc1 [Example 77],0.079
11,"O=C1C(=Nc2cccc(Cl)c2)c2ccccc2N1c1ccccc1 [Example 94, 3-[(3-CHLOROPHENYL)IMINO]-1-PHENYL-1,3-DIHYDRO-2H-INDOL-2-ONE]",0.049

# Same assay, conditions: Table 9; read-out: hGAL3 Ki
row,Compound,Ki [µM]
1,CN(C)c1cc(Nc2ccc(Cl)c(Cl)c2)nc(Nc2ccccc2)n1 [Example 60],0.086
2,COc1cccc(Nc2cc(N3CCCCC3)nc(N(C)CCc3c[nH]c4ccccc34)n2)c1 [Example 17],0.087
3,"O=C1C(=Nc2ccc(C(F)(F)F)cc2)c2ccccc2N1c1ccccc1 [Example 95, 1-PHENYL-3-[[4-(TRIFLUOROMETHYL)PHENYL]IMINO]-1,3-DIHYDRO-2H-INDOL-2-ONE]",0.029
4,"O=C1C(=Nc2ccc(Br)cc2)c2ccccc2N1c1ccccc1 [Example 98, 3-[(4-BROMOPHENYL)IMINO]-1-PHENYL-1,3-DIHYDRO-2H-INDOL-2-ONE]",0.038
5,Cc1ccc(Nc2cc(N3CCCCC3)nc(N3CCN(c4ncccc4C(F)(F)F)CC3)n2)cc1 [Example 34],0.023
6,"O=C1C(=Nc2ccc(Cl)cc2)c2ccccc2N1c1ccccc1 [Example 97, 3-[(4-CHLOROPHENYL)IMINO]-1-PHENYL-1,3-DIHYDRO-2H-INDOL-2-ONE]",0.051
7,Cc1ccc(Nc2cc(N3CCCCC3)nc(N(C)CCc3ccccc3)n2)cc1 [Example 22],0.028
8,Cc1ccc(Nc2cc(N3CCCCC3)nc(N(C)CCc3c[nH]c4ccccc34)n2)cc1 [Example 11],0.091
9,CN(CCc1c[nH]c2ccccc12)c1nc(Nc2ccc(F)c(F)c2)cc(N2CCCCC2)n1 [Example 15],0.073
10,Cc1ccc(Nc2cc(N(C)C)nc(N(C)CCc3c[nH]c4ccccc34)n2)cc1 [Example 77],0.079
11,"O=C1C(=Nc2cccc(Cl)c2)c2ccccc2N1c1ccccc1 [Example 94, 3-[(3-CHLOROPHENYL)IMINO]-1-PHENYL-1,3-DIHYDRO-2H-INDOL-2-ONE]",0.049

# Same assay, conditions: indolones, cloned human receptor; read-out: Ki GalR3
row,Compound,Ki [µM]
1,"O=C1C(=Nc2ccc(C(F)(F)F)cc2)c2ccccc2N1c1ccccc1 [Example 95, 1-PHENYL-3-[[4-(TRIFLUOROMETHYL)PHENYL]IMINO]-1,3-DIHYDRO-2H-INDOL-2-ONE]",0.029
2,"O=C1C(=Nc2ccc(Br)cc2)c2ccccc2N1c1ccccc1 [Example 98, 3-[(4-BROMOPHENYL)IMINO]-1-PHENYL-1,3-DIHYDRO-2H-INDOL-2-ONE]",0.038
3,"O=C1C(=Nc2ccc(Cl)cc2)c2ccccc2N1c1ccccc1 [Example 97, 3-[(4-CHLOROPHENYL)IMINO]-1-PHENYL-1,3-DIHYDRO-2H-INDOL-2-ONE]",0.051
4,"O=C1C(=Nc2cc(Cl)cc(Cl)c2)c2ccccc2N1c1ccccc1 [Example 103, 3-[(3,5-DICHLOROPHENYL)IMINO]-1-PHENYL-1,3-DIHYDRO-2H-INDOL-2-ONE]",0.068
5,"O=C1C(=Nc2cccc(Cl)c2)c2ccccc2N1c1ccccc1 [Example 94, 3-[(3-CHLOROPHENYL)IMINO]-1-PHENYL-1,3-DIHYDRO-2H-INDOL-2-ONE]",0.049

# Same assay, conditions: pyrimidines, cloned human receptor; read-out: Ki GalR3
row,Compound,Ki [µM]
1,CN(C)c1cc(Nc2ccc(Cl)c(Cl)c2)nc(Nc2ccccc2)n1 [Example 60],0.086
2,COc1cccc(Nc2cc(N3CCCCC3)nc(N(C)CCc3c[nH]c4ccccc34)n2)c1 [Example 17],0.087
3,Cc1ccc(Nc2cc(N3CCCCC3)nc(N3CCN(c4ncccc4C(F)(F)F)CC3)n2)cc1 [Example 34],0.023
4,Cc1ccc(Nc2cc(N3CCCCC3)nc(N(C)CCc3ccccc3)n2)cc1 [Example 22],0.028
5,Cc1ccc(Nc2cc(N3CCCCC3)nc(N(C)CCc3c[nH]c4ccccc34)n2)cc1 [Example 11],0.091
6,CN(CCc1c[nH]c2ccccc12)c1nc(Nc2ccc(F)c(F)c2)cc(N2CCCCC2)n1 [Example 15],0.073
7,Cc1ccc(Nc2cc(N(C)C)nc(N(C)CCc3c[nH]c4ccccc34)n2)cc1 [Example 77],0.079

# Same assay, conditions: read-out: Ki GalR3; pyrimidines, cloned human receptor
row,Compound,Ki [µM]
1,COC[C@@H]1[C@@H](c2ccccc2)OCCN1c1nc(Nc2ccc(C)cc2)cc(N2CCCCC2)n1 [Example 49],0.211

# Same assay, conditions: read-out: hGAL3 Ki; Table 7
row,Compound,Ki [µM]
1,COC[C@@H]1[C@@H](c2ccccc2)OCCN1c1nc(Nc2ccc(C)cc2)cc(N2CCCCC2)n1 [Example 49],0.211

# Same assay, conditions: read-out: hGAL3 Ki; Table 9
row,Compound,Ki [µM]
1,COC[C@@H]1[C@@H](c2ccccc2)OCCN1c1nc(Nc2ccc(C)cc2)cc(N2CCCCC2)n1 [Example 49],0.211

# Target: T2, human α2A adrenoceptor (Homo sapiens, UniProt P08913)
# T2 construct: expressed in transfected cells
# T2 sequence (P08913 1-465): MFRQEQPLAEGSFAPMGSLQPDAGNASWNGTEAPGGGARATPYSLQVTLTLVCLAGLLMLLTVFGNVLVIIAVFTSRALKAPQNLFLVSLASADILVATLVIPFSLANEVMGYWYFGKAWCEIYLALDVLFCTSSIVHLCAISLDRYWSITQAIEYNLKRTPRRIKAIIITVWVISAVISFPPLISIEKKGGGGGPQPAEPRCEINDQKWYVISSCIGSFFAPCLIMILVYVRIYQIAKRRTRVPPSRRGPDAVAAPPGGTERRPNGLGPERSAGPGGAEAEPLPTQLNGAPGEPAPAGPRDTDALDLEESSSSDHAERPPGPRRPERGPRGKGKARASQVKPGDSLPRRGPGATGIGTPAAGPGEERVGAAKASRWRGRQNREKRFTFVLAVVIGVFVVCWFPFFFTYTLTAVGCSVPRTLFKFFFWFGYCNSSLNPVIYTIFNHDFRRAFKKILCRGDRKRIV
# Experiment: Radioligand binding, α2A adrenergic receptor
# Settings: Table 9; read-out: hα2A Ki
# Description: Other receptors: Cell membranes expressing human dopamine D1, D2, D4 and rat D3 receptors were purchased through BioSignal, Inc. (Montreal, Canada). Binding assays using the histamine H1 receptor; dopamine receptors; and α1A, α1E, and α2 adrenergic receptors may be carried out according to the procedures described in U.S. Patent No. 5,780,485, the disclosure of which is hereby incorporated by reference in its entirety into this application. Binding assays using the dopamine D5 receptor may be carried out according to the procedures described in U.S. Patent No. 5,882,855, the disclosure of which is hereby incorporated by reference in its entirety into this application. Binding assays for the human α1D adrenergic receptor may be carried out according to the procedures described in U.S. Patent No. 6,156,518, the disclosure of which is hereby incorporated by reference in its entirety into this application.
# Binding data were analyzed using nonlinear regression and statistical techniques available in the GraphPAD Prism package (San Diego, CA). Enzymatic assay data were derived from a standard curve of reference compound data.
row,Compound,Ki [µM]
1,CN(C)c1cc(Nc2ccc(Cl)c(Cl)c2)nc(Nc2ccccc2)n1 [Example 60],10.8
2,COc1cccc(Nc2cc(N3CCCCC3)nc(N(C)CCc3c[nH]c4ccccc34)n2)c1 [Example 17],3.52
3,"O=C1C(=Nc2ccc(C(F)(F)F)cc2)c2ccccc2N1c1ccccc1 [Example 95, 1-PHENYL-3-[[4-(TRIFLUOROMETHYL)PHENYL]IMINO]-1,3-DIHYDRO-2H-INDOL-2-ONE]",30.1
4,"O=C1C(=Nc2ccc(Br)cc2)c2ccccc2N1c1ccccc1 [Example 98, 3-[(4-BROMOPHENYL)IMINO]-1-PHENYL-1,3-DIHYDRO-2H-INDOL-2-ONE]",23.2
5,Cc1ccc(Nc2cc(N3CCCCC3)nc(N3CCN(c4ncccc4C(F)(F)F)CC3)n2)cc1 [Example 34],3.68
6,"O=C1C(=Nc2ccc(Cl)cc2)c2ccccc2N1c1ccccc1 [Example 97, 3-[(4-CHLOROPHENYL)IMINO]-1-PHENYL-1,3-DIHYDRO-2H-INDOL-2-ONE]",13.6
7,Cc1ccc(Nc2cc(N3CCCCC3)nc(N(C)CCc3ccccc3)n2)cc1 [Example 22],0.906
8,Cc1ccc(Nc2cc(N3CCCCC3)nc(N(C)CCc3c[nH]c4ccccc34)n2)cc1 [Example 11],1.82
9,CN(CCc1c[nH]c2ccccc12)c1nc(Nc2ccc(F)c(F)c2)cc(N2CCCCC2)n1 [Example 15],14.4
10,Cc1ccc(Nc2cc(N(C)C)nc(N(C)CCc3c[nH]c4ccccc34)n2)cc1 [Example 77],0.315
11,"O=C1C(=Nc2cccc(Cl)c2)c2ccccc2N1c1ccccc1 [Example 94, 3-[(3-CHLOROPHENYL)IMINO]-1-PHENYL-1,3-DIHYDRO-2H-INDOL-2-ONE]",12.7

# Same assay, conditions: Table 10; Ki hα2A divided by Ki hGAL3
row,Compound,selectivity ratio hα2A
1,CN(C)c1cc(Nc2ccc(Cl)c(Cl)c2)nc(Nc2ccccc2)n1 [Example 60],>100
2,COc1cccc(Nc2cc(N3CCCCC3)nc(N(C)CCc3c[nH]c4ccccc34)n2)c1 [Example 17],>30
3,"O=C1C(=Nc2ccc(C(F)(F)F)cc2)c2ccccc2N1c1ccccc1 [Example 95, 1-PHENYL-3-[[4-(TRIFLUOROMETHYL)PHENYL]IMINO]-1,3-DIHYDRO-2H-INDOL-2-ONE]",>100
4,"O=C1C(=Nc2ccc(Br)cc2)c2ccccc2N1c1ccccc1 [Example 98, 3-[(4-BROMOPHENYL)IMINO]-1-PHENYL-1,3-DIHYDRO-2H-INDOL-2-ONE]",>100
5,Cc1ccc(Nc2cc(N3CCCCC3)nc(N3CCN(c4ncccc4C(F)(F)F)CC3)n2)cc1 [Example 34],>100
6,"O=C1C(=Nc2ccc(Cl)cc2)c2ccccc2N1c1ccccc1 [Example 97, 3-[(4-CHLOROPHENYL)IMINO]-1-PHENYL-1,3-DIHYDRO-2H-INDOL-2-ONE]",>100
7,COC[C@@H]1[C@@H](c2ccccc2)OCCN1c1nc(Nc2ccc(C)cc2)cc(N2CCCCC2)n1 [Example 49],22
8,Cc1ccc(Nc2cc(N3CCCCC3)nc(N(C)CCc3ccccc3)n2)cc1 [Example 22],>30
9,Cc1ccc(Nc2cc(N3CCCCC3)nc(N(C)CCc3c[nH]c4ccccc34)n2)cc1 [Example 11],20
10,CN(CCc1c[nH]c2ccccc12)c1nc(Nc2ccc(F)c(F)c2)cc(N2CCCCC2)n1 [Example 15],>100
11,Cc1ccc(Nc2cc(N(C)C)nc(N(C)CCc3c[nH]c4ccccc34)n2)cc1 [Example 77],4
12,"O=C1C(=Nc2cccc(Cl)c2)c2ccccc2N1c1ccccc1 [Example 94, 3-[(3-CHLOROPHENYL)IMINO]-1-PHENYL-1,3-DIHYDRO-2H-INDOL-2-ONE]",>100
13,"O=C1C(=Nc2cccc(C(F)(F)F)c2)c2ccccc2N1c1ccccc1 [Example 92, 1-PHENYL-3- [[3-(TRIFLUOROMETHYL)PHENYL]IMINO]-1,3-DIHYDRO-2H-INDOL-2-ONE]",>100

# Same assay, conditions: read-out: hα2A Ki; Table 9
row,Compound,Ki [µM]
1,COC[C@@H]1[C@@H](c2ccccc2)OCCN1c1nc(Nc2ccc(C)cc2)cc(N2CCCCC2)n1 [Example 49],4.73
